Patent publication US10689378B2, “Triazolopyridine compounds and uses thereof” (Novartis AG, priority 2016, dated 2020)
Where two headings read alike, the source gives them in different places.

Legend:
[1] = target: wild type PRC2 (wtPRC2) complex (Homo sapiens, UniProt O75530); test: EED LC-MS assay (SAH production by PRC2); format: biochemical
Experimental: Compounds of the present invention were assessed for their ability to inhibit PRC2 activity in a pentameric complex of EZH2, SUZ12, EED, Rbap48 and AEBP in biochemical assays. The ability of compounds of the present invention to inhibit cellular activity of PRC2 was assessed by analysing histone H3 lysine 27 methylation in human cell lines. The ability of compounds of the present invention to inhibit cancers was derived from their ability to modulate activity in human cancer cell lines bearing specific dependence to PRC2 activity to maintain cancerous growth.
Representative compounds of the present invention were serially and separately diluted 3-fold in DMSO to obtain a total of eight or twelve concentrations. Then the test compounds at each concentration (120 nL of each) were transferred by Mosquito into a 384-well Perkin Elmer ProxiPlate 384 plus plates. Solutions (6 μL) of 24 nM the wild type PRC2 (wtPRC2) complex and 2 μM SAM in reaction buffer (20 mM Tris, pH 8.0, 0.1% BSA, 0.01% Triton, 0.5 mM DTT) were added to the wells that were then incubated with the test compound for 20 min. A 6 μL solution of 3 μM of the peptide substrate H3K27Me0 (histone H3[21-44]-biotin) in reaction buffer was added to initiate each reaction. The final components in the reaction solution include 12 nM wtPRC2 complex, 1 μM SAM, and 1.5 μM H3K27me0 peptide with varying concentration of the compounds. A positive control consisted of the enzyme, 1 μM SAM and 1.5 μM substrate in the absence of the test compound, and a negative control consisted of 1 μM SAM and 1.5 μM substrate only. Each reaction was incubated at rt for 120 min, then stopped by addition of 3 μL per of quench solution (2.5% TFA with 320 nM d4-SAH). The reaction mixture was centrifuged (Eppendorf centrifuge 5810, Rotor A-4-62) for 2 min at 2000 rpm and read on an API 4000 triple quadrupole mass spec with Turbulon Spray (Applied Biosystem) coupled with Prominence UFLC (Shimadzu). The levels of SAH production were then normalized based on the values coming from the positive and negative controls to give percent enzyme activities. The data were then fit to a dose response equation using the program Helios to get the IC50 values of the test compound.

[2] = tested on: H3K27 methylation in G401 cell; test: ELISA (H3K27 methylation) assay in G401 cells; format: cell-based, human; conditions: Homo sapiens
Procedure, shortened: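 IC50 from dose-response fit of percent inhibition relative to DMSO, using H3K27me3/me2 ELISA signal (ECL) normalized to histone H3. Histones HCl-extracted after 48 h compound exposure of G401 cells at up to 20 μM, 8- or 12-point 3-fold series.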

[3] = target: T1, EED (1-441)-His protein (Homo sapiens, UniProt O75530); test: EED-H3K27Me3 peptide competition binding assay by AlphaScreen
T1 construct: 30 nM EED (1-441)-His protein
T1 sequence (O75530 whole entry): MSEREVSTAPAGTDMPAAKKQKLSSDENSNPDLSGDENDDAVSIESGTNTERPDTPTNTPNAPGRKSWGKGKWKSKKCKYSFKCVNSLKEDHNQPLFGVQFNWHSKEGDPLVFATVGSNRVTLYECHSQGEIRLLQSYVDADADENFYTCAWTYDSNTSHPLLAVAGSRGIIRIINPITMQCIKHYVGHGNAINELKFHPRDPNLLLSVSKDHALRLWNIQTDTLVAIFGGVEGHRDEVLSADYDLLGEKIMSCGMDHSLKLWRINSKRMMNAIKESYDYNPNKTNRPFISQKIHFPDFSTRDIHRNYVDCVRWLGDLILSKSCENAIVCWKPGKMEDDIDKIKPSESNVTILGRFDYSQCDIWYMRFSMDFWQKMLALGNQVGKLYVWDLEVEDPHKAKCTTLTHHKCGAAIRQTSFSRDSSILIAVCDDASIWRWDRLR
Procedure, shortened: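 Serially diluted compound (12 points, 3-fold) incubated 20 min with 30 nM EED(1-441)-His and 15 nM biotin-H3K27Me3(19-33) peptide in 25 mM HEPES pH 8, 0.02% Tween-20, 0.5% BSA. Ni-chelate acceptor/streptavidin donor beads (10 μg/mL each) added, 1 h rt dark; 615 nm emission normalized to controls, dose-response fit for IC50.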

[4] = read-out: (b) IC50, EED LC-MS Qualified
[5] = G-401, read-out: (c) IC50, ELISA Qualified
[6] = read-out: (a) IC50, EED Alphascreen binding Qualified
[7] = read-out: (b) IC50 EED LC-MS Qualified
[8] = G-401, read-out: (c) IC50 ELISA Qualified
[9] = read-out: (a) IC50 EED Alphascreen binding Qualified
[10] = PRC2 LC-MS assay, read-out: (b) IC50 EED LC-MS Qualified
[11] = G-401, H3K27 methylation ELISA, read-out: (c) IC50 ELISA Qualified
[12] = EED-H3K27Me3 peptide competition, AlphaScreen, read-out: (a) IC50 EED Alphascreen binding Qualified

wild type PRC2 (wtPRC2) complex, sequence (O75530 whole entry): as above
wild type PRC2 (wtPRC2) complex, sequence (Q15910 whole entry partner): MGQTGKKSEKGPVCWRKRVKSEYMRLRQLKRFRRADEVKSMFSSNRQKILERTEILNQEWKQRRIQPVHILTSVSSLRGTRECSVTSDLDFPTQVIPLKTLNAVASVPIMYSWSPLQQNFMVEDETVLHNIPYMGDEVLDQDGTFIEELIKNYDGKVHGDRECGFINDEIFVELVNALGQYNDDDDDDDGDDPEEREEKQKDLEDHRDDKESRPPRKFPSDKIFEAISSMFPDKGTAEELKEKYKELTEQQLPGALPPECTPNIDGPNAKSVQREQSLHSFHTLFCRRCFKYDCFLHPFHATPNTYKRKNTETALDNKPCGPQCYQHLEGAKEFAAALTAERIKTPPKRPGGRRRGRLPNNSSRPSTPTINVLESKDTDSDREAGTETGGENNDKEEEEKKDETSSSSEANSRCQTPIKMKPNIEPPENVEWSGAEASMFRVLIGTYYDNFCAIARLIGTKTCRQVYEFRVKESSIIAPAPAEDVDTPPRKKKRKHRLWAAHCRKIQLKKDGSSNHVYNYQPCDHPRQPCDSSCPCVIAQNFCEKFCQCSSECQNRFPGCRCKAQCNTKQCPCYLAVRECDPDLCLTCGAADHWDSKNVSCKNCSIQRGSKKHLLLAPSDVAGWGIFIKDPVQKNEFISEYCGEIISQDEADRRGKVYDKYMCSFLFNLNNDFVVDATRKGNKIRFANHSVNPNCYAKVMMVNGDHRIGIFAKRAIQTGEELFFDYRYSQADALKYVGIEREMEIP
wild type PRC2 (wtPRC2) complex, sequence (Q15022 whole entry partner): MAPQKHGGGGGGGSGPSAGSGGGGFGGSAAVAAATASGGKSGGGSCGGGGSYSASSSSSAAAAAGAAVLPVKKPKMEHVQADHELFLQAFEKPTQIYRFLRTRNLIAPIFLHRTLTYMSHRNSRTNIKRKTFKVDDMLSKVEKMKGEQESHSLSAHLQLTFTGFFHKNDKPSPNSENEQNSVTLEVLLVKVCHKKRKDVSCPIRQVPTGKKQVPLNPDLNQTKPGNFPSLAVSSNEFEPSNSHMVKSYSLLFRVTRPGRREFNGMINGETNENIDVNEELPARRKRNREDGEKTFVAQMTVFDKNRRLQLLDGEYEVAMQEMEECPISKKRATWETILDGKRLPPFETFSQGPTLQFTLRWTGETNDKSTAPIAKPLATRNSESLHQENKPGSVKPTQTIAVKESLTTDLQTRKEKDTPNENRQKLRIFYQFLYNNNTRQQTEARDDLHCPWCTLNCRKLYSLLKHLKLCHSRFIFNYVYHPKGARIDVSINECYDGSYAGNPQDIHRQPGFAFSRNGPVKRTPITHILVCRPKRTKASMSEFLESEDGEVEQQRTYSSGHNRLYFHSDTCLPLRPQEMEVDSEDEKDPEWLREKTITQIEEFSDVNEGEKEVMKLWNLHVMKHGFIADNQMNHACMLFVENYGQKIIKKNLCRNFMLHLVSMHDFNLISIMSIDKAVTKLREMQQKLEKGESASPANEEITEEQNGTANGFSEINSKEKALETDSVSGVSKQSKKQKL
wild type PRC2 (wtPRC2) complex, sequence (Q09028 whole entry partner): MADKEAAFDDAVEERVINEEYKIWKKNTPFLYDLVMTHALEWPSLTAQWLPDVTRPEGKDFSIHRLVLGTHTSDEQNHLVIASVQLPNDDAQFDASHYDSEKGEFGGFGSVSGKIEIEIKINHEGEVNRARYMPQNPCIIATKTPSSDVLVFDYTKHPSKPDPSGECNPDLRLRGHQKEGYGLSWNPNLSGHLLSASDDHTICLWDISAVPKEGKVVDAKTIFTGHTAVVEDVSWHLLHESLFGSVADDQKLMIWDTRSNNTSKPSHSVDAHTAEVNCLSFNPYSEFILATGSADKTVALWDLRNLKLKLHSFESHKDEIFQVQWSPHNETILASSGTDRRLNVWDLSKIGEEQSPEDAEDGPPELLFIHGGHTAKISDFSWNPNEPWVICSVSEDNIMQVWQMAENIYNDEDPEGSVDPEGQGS
wild type PRC2 (wtPRC2) complex, sequence (Q6ZN18 whole entry partner): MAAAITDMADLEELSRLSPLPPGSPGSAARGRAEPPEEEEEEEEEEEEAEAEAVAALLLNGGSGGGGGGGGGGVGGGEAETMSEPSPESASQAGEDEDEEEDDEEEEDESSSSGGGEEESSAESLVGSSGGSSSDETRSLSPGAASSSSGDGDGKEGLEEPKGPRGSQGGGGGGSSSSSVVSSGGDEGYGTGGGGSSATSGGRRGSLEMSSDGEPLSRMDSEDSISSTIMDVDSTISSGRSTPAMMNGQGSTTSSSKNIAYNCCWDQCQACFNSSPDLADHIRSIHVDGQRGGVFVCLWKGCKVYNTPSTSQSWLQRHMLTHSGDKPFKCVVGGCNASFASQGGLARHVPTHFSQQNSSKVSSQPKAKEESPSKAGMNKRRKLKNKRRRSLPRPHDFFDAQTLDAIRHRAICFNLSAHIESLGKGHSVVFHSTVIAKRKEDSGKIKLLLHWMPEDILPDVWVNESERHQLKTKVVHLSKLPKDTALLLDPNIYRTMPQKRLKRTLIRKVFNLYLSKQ

| IC50 [1, 4] | IC50 [2, 5] | IC50 [3, 6] | IC50 [1, 10] | IC50 [2, 11] | IC50 [3, 12] | SMILES | further results |
| --- | --- | --- | --- | --- | --- | --- | --- |
| 23.6 nM | 10.7 nM | 17.5 nM | – | – | – | COc1cccc(F)c1CNc1ccc(-c2cnc(C)nc2C)c2nncn12 [Example 3, 8-(2,4-Dimethylpyrimidin-5-yl)-N-(2-fluoro-6-methoxybenzyl)-[1,2,4]triazolo[4,3-a]pyridin-5-amine] | – |
| 38.9 nM | 19.6 nM | 13.8 nM | – | – | – | COc1cccc(F)c1CNc1ccc(-c2cncc(F)c2)c2nncn12 [Example 158, N-(2-fluoro-6-methoxybenzyl)-8-(5-fluoropyridin-3-yl)-[1,2,4]triazolo[4,3-a] pyridin-5-amine] | – |
| – | – | – | – | – | – | COc1cccc(F)c1CNc1ccc(-c2cc(C#N)cnc2C)c2nncn12 [Example 350, 5-(5-((2-fluoro-6-methoxybenzyl)amino)-[1,2,4]triazolo[4,3-a]pyridin-8-yl)-6-methylnicotinonitrile] | IC50 [1, 7]: 45.4 nM; IC50 [2, 8]: 16.4 nM; IC50 [3, 9]: 32.2 nM |
| – | – | – | 95.5 nM | 21.9 nM | 21.6 nM | COc1cccc(F)c1CNc1ccc(-c2cccnc2CC#N)c2nncn12 [Example 341, 2-(3-(5-((2-fluoro-6-methoxybenzyl)amino)-[1,2,4]triazolo[4,3-a]pyridin-8-yl)pyridin-2-yl)acetonitrile] | – |
| 377 nM | 158 nM | 56.2 nM | – | – | – | COc1ccc(-c2ccc(NCc3ccccc3OC)n3cnnc23)cn1 [Example 16, N-(2-methoxybenzyl)-8-(6-methoxypyridin-3-yl)-[1,2,4] triazolo[4,3-a]pyridin-5-amine] | – |
| 676 nM | 80.3 nM | 66.4 nM | – | – | – | COc1cccc(F)c1CNc1ccc(-c2ccc(O)nc2)c2nncn12 [Example 151, 5-(5-((2-fluoro-6-methoxybenzyl)amino)-[1,2,4]triazolo[4,3-a]pyridin-8-yl) pyridin-2-ol] | – |
| – | – | – | 56.2 nM | 12.6 nM | 16.2 nM | COc1cc(F)cc(F)c1CNc1ccc(-c2ccc(S(C)(=O)=O)nc2C)c2nncn12 [Example 241, N-(2,4-difluoro-6-methoxybenzyl)-8-(2-methyl-6-(methylsulfonyl)pyridin-3-yl)-[1,2,4]triazolo[4,3-a] pyridin-5-amine] | – |
| 99.8 nM | 60.6 nM | 28.9 nM | – | – | – | COc1cncc(-c2ccc(NCc3c(F)cccc3OC)n3cnnc23)c1 [Example 148, N-(2-fluoro-6-methoxybenzyl)-8-(5-methoxypyridin-3-yl)-[1,2,4] triazolo[4,3-a]pyridin-5-amine] | – |
| 224 nM | 18.5 nM | 33.2 nM | – | – | – | COc1ccccc1CNc1ccc(-c2ccc(S(=O)(=O)C3CCN(C)CC3)cc2)c2nncn12 [Example 128, N-(2-methoxybenzyl)-8-(4-((1-methylpiperidin-4-yl)sulfonyl)phenyl)-[1,2,4] triazolo[4,3-a]pyridin-5-amine] | – |
| 420 nM | 133 nM | 41.9 nM | – | – | – | COc1ccccc1CNc1ccc(-c2ccc(Cn3ccnc3)cc2)c2nncn12 [Example 76, 8-(4-((1H-imidazol-1-yl)methyl)phenyl)-N-(2-methoxybenzyl)-[1,2,4] triazolo[4,3-a]pyridin-5-amine] | – |
| – | – | – | 165 nM | 61.9 nM | 42.4 nM | COc1cccc(F)c1CNc1ccc(-c2cnn(C3CC3)c2)c2nncn12 [Example 210, 8-(1-cyclopropyl-1H-pyrazol-4-yl)-N-(2-fluoro-6-methoxybenzyl)-[1,2,4] triazolo[4,3-a]pyridin-5-amine] | – |
| – | – | – | 6.3 nM | 7.1 nM | 14.1 nM | COc1cccc(F)c1CNc1ccc(-c2cccnc2C(F)F)c2nncn12 [Example 265, 8-(2-(difluoromethyl)pyridin-3-yl)-N-(2-fluoro-6-methoxybenzyl)-[1,2,4] triazolo[4,3-a]pyridin-5-amine] | – |
| 236 nM | 397 nM | 45.2 nM | – | – | – | COc1ccccc1CNc1ccc(-c2ccc(S(N)(=O)=O)cc2)c2nncn12 [Example 73, 4-(5-((2-methoxybenzyl)amino)-[1,2,4]triazolo[4,3-a]pyridin-8-yl)benzene sulfonamide] | – |
| – | – | – | – | – | – | COc1cccc(F)c1CNc1ccc(-c2cnc(C)n2C)c2nncn12 [Example 366, 8-(1,2-dimethyl-1H-imidazol-5-yl)-N-(2-fluoro-6-methoxybenzyl)-[1,2,4]triazolo[4,3-a]pyridin-5-amine] | IC50 [1, 7]: 45.5 nM; IC50 [2, 8]: 3.4 nM; IC50 [3, 9]: 13.3 nM |
| – | – | – | 289 nM | 59.2 nM | 66.2 nM | COc1cc(F)cc(F)c1CNc1ccc(-c2cnccc2C)c2nncn12 [Example 253, N-(2,4-difluoro-6-methoxybenzyl)-8-(4-methylpyridin-3-yl)-[1,2,4]triazolo[4,3-a] pyridin-5-amine] | – |
| – | – | – | 166 nM | 43.1 nM | 23.8 nM | COc1cccc(F)c1CNc1ccc(-c2cc(C)ncc2C(F)F)c2nncn12 [Example 337, 8-(5-(difluoromethyl)-2-methylpyridin-4-yl)-N-(2-fluoro-6-methoxybenzyl)-[1,2,4]triazolo[4,3-a]pyridin-5-amine] | – |
| – | – | – | 44.4 nM | 10.5 nM | 9.6 nM | COc1cccc(F)c1CNc1ccc(-c2cnc(C3CC3)nc2C)c2nncn12 [Example 284, 8-(2-cyclopropyl-4-methylpyrimidin-5-yl)-N-(2-fluoro-6-methoxybenzyl)-[1,2,4] triazolo[4,3-a]pyridin-5-amine] | – |
| 11.2 nM | 18.1 nM | 27.7 nM | – | – | – | COc1cccc(F)c1CNc1ccc(-c2ccnn2C)c2nncn12 [Example 1, N-(2-Fluoro-6-methoxybenzyl)-8-(1-methyl-1H-pyrazol-5-yl)-[1,2,4]triazolo[4,3-a]pyridin-5-amine] | – |
| 207 nM | 101 nM | 65.9 nM | – | – | – | CCN1CCN(c2ccc(-c3ccc(NCc4ccccc4OC)n4cnnc34)cc2)CC1 [Example 152, 8-(4-(4-ethylpiperazin-1-yl)phenyl)-N-(2-methoxybenzyl)-[1,2,4]triazolo[4,3-a] pyridin-5-amine] | – |
| – | – | – | 362 nM | 86.9 nM | 67.9 nM | CCc1ncccc1-c1ccc(NCc2c(F)cc(F)cc2OC)n2cnnc12 [Example 298, N-(2,4-difluoro-6-methoxybenzyl)-8-(2-ethylpyridin-3-yl)-[1,2,4]triazolo[4,3-a] pyridin-5-amine] | – |
| – | – | – | 41.8 nM | 8.6 nM | 15.7 nM | COc1cccc(F)c1CNc1ccc(-c2cnc(C#N)cc2C)c2nncn12 [Example 251, 5-(5-((2-fluoro-6-methoxybenzyl)amino)-[1,2,4]triazolo[4,3-a]pyridin-8-yl)-4-methylpicolinonitrile] | – |
| 90.1 nM | 26.1 nM | 48.7 nM | – | – | – | COc1cccc(F)c1CNc1ccc(-c2cnc(C)nc2)c2nncn12 [Example 161, N-(2-fluoro-6-methoxybenzyl)-8-(2-methylpyrimidin-5-yl)-[1,2,4] triazolo[4,3-a]pyridin-5-amine] | – |
| 914 nM | 126 nM | 31.7 nM | – | – | – | COc1ccccc1CNc1ccc(-c2ccc(C(N)=O)c(Cl)c2)c2nncn12 [Example 64, 2-chloro-4-(5-((2-methoxybenzyl)amino)-[1,2,4]triazolo[4,3-a]pyridin-8-yl) benzamide] | – |
| – | – | – | 131 nM | 40.2 nM | 45.5 nM | COc1cc(F)cc(F)c1CNc1ccc(-c2c(C)noc2C)c2nncn12 [Example 227, N-(2,4-difluoro-6-methoxybenzyl)-8-(3,5-dimethylisoxazol-4-yl)-[1,2,4] triazolo[4,3-a]pyridin-5-amine] | – |
